From patent US11519911B2, “ALX receptor ligands define a biochemical endotype for inflammation-based diseases” (THE BRIGHAM AND WOMEN'S HOSPITAL, INC., priority 2017, dated 2022)
“Also recorded” adds a separate entry of the source.

Experiments:
[1] = BALF ALX ligand levels after a single dose of intramuscular triamcinolone in asthma subjects; assay type: in vivo, human; conditions: measured 3 to 6 weeks after, SA or NSA subjects
Protocol: Subjects 13 years of age and older with asthma and healthy control subjects were recruited between November 2012 and February 2015 by seven geographically dispersed, research centers in the USA. European Respiratory Society/American Thoracic Society guidelines were used to categorize subjects as SA or NSA (48). Control subjects were individuals who reported general health and were non-smokers with no history of lung disease, atopic disease or allergic rhinitis. BAL was performed with three 50 mL aliquots of warm saline, and BALF were recovered by hand suction. Subjects received intramuscular triamcinolone (1 mg/kg up to a maximum dose of 40 mg) and some subjects agreed to undergo a second bronchoscopy 3 to 6 weeks later and BAL samples were collected in the same manner. BAL cells were enumerated and differential leukocyte counts determined. Cell-free BALF supernatant was divided into several aliquots. One aliquot of BALF (1 ml) was directly mixed with iced methanol (2 ml, for 1:2, vol/vol) before storing at −80° C. The other aliquots were directly stored at −80° C. […]
LXA4 and 15-epi-LXA4 levels in the BALF were measured by ELISA (Neogen, Lexington, Ky.). […] SAA and ANXA1 levels were measured by ELISA in aliquots of BALF stored in the absence of methanol (SAA: Abazyme, Needham, Mass.; ANXA1: Cloud-Clone, Houston, Tex.). […]

[2] = target: T1, ALX/FPR2 receptors (ALX) (Homo sapiens, UniProt P25090); assay: ALX-dependent in vitro reporter assay: IL-8 production by A549 cells expressing human ALX receptor (ELISA); assay type: cell-based; parameters: expressed in transfected cells; host or cells: A549 human lung epithelial cells, stably transfected
T1 sequence (P25090 1-351): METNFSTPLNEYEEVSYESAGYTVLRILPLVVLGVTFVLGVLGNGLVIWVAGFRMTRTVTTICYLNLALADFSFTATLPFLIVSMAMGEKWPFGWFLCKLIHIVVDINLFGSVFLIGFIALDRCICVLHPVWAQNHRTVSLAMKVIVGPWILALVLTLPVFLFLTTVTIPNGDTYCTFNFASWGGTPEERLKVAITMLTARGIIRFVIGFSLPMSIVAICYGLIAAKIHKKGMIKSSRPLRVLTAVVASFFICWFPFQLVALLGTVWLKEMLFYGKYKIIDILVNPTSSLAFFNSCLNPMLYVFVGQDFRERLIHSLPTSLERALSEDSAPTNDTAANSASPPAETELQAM
Protocol: FIG. 6 A-D. SAA and 15-epi-LXA4 signaling via ALX receptors regulates production of the neutrophil chemoattractant IL-8 A549 human epithelial cells expressing human ALX receptors (A549^hALX) were exposed to BALF from HD, NSA, or SA subjects (24 h, 37° C., 5% CO2) and IL-8 levels were measured in the cell-free supernatant by ELISA (see Methods). (A) Mean levels of LXA4, 15-epi-LXA4 and SAA in BALF from n=15 subjects used for A549^hALX cell incubations are shown in stacked bar graphs and the relative proportions are noted in pie charts. (B) IL-8 production by A549^hALX cells was measured after incubation with saline control or SAA (2.5 ng/ml or 10 ng/ml) for 24 hours. (C) IL-8 production by A549^hALX cells was measured after 24 hours of exposure to BALF from HD (n=3), NSA (n=6) or SA (n=5) and is expressed as an increase relative to saline controls. Incubations with BALF without an increase in IL-8 production relative to saline control were assigned a value of zero. (D) A549^hALX epithelial cells were exposed to BALF from subjects with endogenous levels that were LXA4^highSAA^low (n=5) or LXA4^lowSAA^high (n=6) followed by exposure to exogenous 15-epi-LXA4 (100 nM). % Inhibition of IL-8 production after 15-epi-LXA4 exposure was calculated. *p<0.05, ****p<0.001 by (B) one-way ANOVA (C) Kruskal-Wallis test and (D) Mann-Whitney test. ALX, airway lipoxin A4 receptor; LXA4, lipoxin A4; 15-epi-LXA4, 15-epimer lipoxin A4; SAA, serum amyloid A; HD, healthy donors; NSA, non-severe asthma; SA, severe asthma; IL-8, interleukin-8; BALF, bronchoalveolar lavage fluid.
To determine the functional relationship for these ALX receptor ligands, we next turned to an ALX-dependent in vitro reporter assay that we have previously qualified in chronic obstructive pulmonary disease (18). A549 lung epithelial cells were stably transfected to express the human ALX/FPR2 receptor (hALX). […]
A549 transfected to stably express the human ALX receptor were used (as in (18)). […] IL-8 levels in the supernatants were measured by ELISA (R&D). […]

[3] = target: T1, ALX/FPR2 receptors (ALX); conditions: high affinity cognate receptors; reference (16); cited from earlier work

Molecule: C[C@]12C=CC(=O)C=C1CC[C@H]1[C@@H]3C[C@@H](O)[C@](O)(C(=O)CO)[C@@]3(C)C[C@H](O)[C@@]12F [triamcinolone]
- Change in BALF levels of LXA4, 15-epi LXA4 and SAA [1]: did not result in discernible changes; also recorded: not significantly altered

Molecule: 15-epimer lipoxin A4 [15-epi-LXA4]
- Inhibition of IL-8 production by A549^hALX cells conditioned with BALF ([2]; exogenous 15-epi-LXA4 100 nM, cells exposed to BALF): inhibited A549^hALX cell IL-8 production
- Inhibition of IL-8 production by A549^hALX cells conditioned with BALF from LXA4^lowSAA^high subjects ([2]; exogenous 15-epi-LXA4 100 nM, compared with LXA4^highSAA^low BALF): maximal inhibition of IL-8 production
- Kd [3]: ~1 nM

Molecule: CCCCC[C@H](O)/C=C/C=C\C=C\C=C\[C@@H](O)[C@@H](O)CCCC(=O)O [LXA4, Lipoxin A4]
- Kd [3]: ~1 nM

B1: SAA: acute phase protein, pro-inflammatory ALX peptide ligand; recombinant human SAA (Peprotech) (protein, UniProt P0DJI8 19-122, looked up)
Serum amyloid A-1 protein: RSFFSFLGEAFDGARDMWRAYSDMREANYIGSDKYFHARGNYDAAKRGPGGAWAAEVITDARENIQRFFGHGAEDSLADQAANEWGRSGKDPNHFRPAGLPEKY
- IL-8 production by A549^hALX cells ([2]; recombinant human SAA 0-10 ng/ml, 24 h, vs saline control): concentration-dependent (0-10 ng/ml) increase in IL-8 production
